Consider 2 compounds from US20230036060A1, “DUAL-CONTROLLED DRUG AND PHOTOACTIVATABLE SYSTEM FOR SPATIOTEMPORAL CONTROL OF CELL THERAPY” (THE REGENTS OF THE UNIVERSITY OF CALIFORNIA, priority 2019, published 2023).

The target in one data set is T1, ERT2-mCherry (Homo sapiens, UniProt P03372, G400V/L544A/M543A).
T1 construct: expressed in transfected cells; host or cells: HEK293T
T1 sequence (P03372 311-547 G400V/M543A/L544A limits assumed): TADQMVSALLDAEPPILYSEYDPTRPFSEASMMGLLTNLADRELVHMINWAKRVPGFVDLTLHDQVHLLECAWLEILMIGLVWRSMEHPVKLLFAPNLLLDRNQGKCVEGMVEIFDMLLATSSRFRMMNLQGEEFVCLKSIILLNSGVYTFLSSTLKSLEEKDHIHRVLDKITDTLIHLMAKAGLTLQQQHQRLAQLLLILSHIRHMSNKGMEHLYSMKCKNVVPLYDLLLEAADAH
The experiment in a line: Time-lapse fluorescence microscopy of 4-OHT-induced nuclear translocation of ERT2-mCherry in HEK293T cells. It is filed as cell-based. As to conditions: 4-OHT 500 nM. The method, then:
FIG. 2E illustrates representative time-lapse fluorescence microscopy images of HEK293T cells transiently expressing ERT2-mCherry before and after the addition of nuclear-localizing 4-OHT (500 nM) (imaged every 2 min, 100× mag., scale bar=10 μm, n=6 independently measured cells).
Tamoxifen-induced nuclear import translocation dynamics in HEK293T cells were further characterized using an ERT2-mCherry fusion protein (Fig. S1F). Using time-lapse fluorescence microscopy, we discovered that nuclear translocation driven by 4-OHT (500 nM) occurred on the order of hours. ERT2-mCherry protein was only clearly nuclear-localized (with a nuclear-to-cytosolic mean fluorescence intensity ratio≥2) after approximately three hours (FIG. 2E), highlighting an effective time window for blue light stimulation to drive robust Cre-loxP recombination in ERT2-based photoactivatable construct designs.

The conditions of data set [1]: cited from earlier work.

Turning to 4-hydroxytamoxifen [4-OHT], the “time to significant 4-OHT-induced nuclear translocation of ERT2-mCh fusion protein” value on ERT2-mCherry is on record as “approximately 3 h”. For the same compound, on ERT2-mCherry (after approximately three hours), the “nuclear-to-cytosolic mean fluorescence intensity ratio of ERT2-mCherry” value is reported as ≥ 2.

Consider `CC/C(=C(\c1ccccc1)c1ccc(OCCN(C)C)cc1)c1ccccc1` [tamoxifen], for which the “terminal elimination half-life (plasma concentrations)” value in data set [1] was 5 to 7 h.
